We go through 19 compounds from ChEMBL document CHEMBL1909046, “DrugMatrix in vitro pharmacology data”.

One data set concerns the target D(3) dopamine receptor (Homo sapiens, UniProt P35462). Description: DRUGMATRIX: Dopamine D3 radioligand binding (ligand: [3H] Spiperone). It counts as cell membranes, CHO, Membrane.
Data set [1] can be described thus: DRUGMATRIX: GABAA, Muscimol, Central radioligand binding (ligand: [3H] Muscimol). Format: cell membranes, Rattus norvegicus, Wistar, Brain, Membrane. To be noted: Not Active = under 50% inhibition at 10 µM.
Data set [2] is described as follows: DRUGMATRIX: GABAA, Flunitrazepam, Central radioligand binding (ligand: [3H] Flunitrazepam). To be noted: Not Active = under 50% inhibition at 10 µM. Format: cell membranes, Rattus norvegicus, Wistar, Brain, Membrane.
The nature of data set [3]: DRUGMATRIX: GABAA, Chloride Channel, TBOB radioligand binding (ligand: [3H] TBOB). The settings on record: Not Active = under 50% inhibition at 10 µM. It counts as cell membranes, Rattus norvegicus, Wistar, Cerebral cortex, Membrane.
Data set [4] can be described thus: DRUGMATRIX: Interleukin IL-1 radioligand binding (ligand: [125I] interleukin 1beta). It counts as cell membranes, Membrane. The settings on record: nih3t3; Not Active = under 50% inhibition at 10 µM.
In data set [5] the target is Voltage-gated inwardly rectifying potassium channel KCNH2 (Homo sapiens, UniProt Q12809). The settings on record: hek293. Also: in other assays of this panel Not Active means under 50% inhibition at 10 µM.
Sequence of Voltage-gated inwardly rectifying potassium channel KCNH2 (Q12809 whole entry): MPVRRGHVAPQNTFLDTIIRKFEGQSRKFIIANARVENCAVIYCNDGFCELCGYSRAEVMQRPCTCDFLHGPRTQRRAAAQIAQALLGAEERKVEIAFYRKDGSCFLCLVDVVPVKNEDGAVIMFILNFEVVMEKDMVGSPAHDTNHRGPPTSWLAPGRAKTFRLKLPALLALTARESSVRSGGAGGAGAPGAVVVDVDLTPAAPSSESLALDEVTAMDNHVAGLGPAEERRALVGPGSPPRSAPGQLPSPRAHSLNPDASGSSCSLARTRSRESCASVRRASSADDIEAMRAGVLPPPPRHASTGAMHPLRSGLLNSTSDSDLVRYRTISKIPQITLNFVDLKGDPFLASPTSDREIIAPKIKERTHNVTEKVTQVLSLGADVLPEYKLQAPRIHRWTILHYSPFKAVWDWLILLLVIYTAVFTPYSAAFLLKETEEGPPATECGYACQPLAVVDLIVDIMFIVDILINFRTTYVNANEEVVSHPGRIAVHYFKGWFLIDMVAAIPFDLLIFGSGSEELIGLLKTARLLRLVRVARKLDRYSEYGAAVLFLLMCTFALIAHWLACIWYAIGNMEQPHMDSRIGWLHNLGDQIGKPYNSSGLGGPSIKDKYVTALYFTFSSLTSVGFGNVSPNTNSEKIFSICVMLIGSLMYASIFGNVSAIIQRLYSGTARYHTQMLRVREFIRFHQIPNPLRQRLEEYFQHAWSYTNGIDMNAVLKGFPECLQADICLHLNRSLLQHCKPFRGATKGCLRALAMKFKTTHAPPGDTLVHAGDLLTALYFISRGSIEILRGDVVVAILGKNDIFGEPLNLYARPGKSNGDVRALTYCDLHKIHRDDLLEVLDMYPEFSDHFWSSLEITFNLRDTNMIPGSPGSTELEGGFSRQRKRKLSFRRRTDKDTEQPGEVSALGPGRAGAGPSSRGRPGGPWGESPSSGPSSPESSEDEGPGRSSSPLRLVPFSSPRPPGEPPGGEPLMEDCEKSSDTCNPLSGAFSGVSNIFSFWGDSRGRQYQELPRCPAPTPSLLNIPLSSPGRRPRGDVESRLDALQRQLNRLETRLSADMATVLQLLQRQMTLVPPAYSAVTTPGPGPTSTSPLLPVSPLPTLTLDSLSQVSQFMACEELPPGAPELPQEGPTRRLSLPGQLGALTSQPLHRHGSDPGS

Sequence of D(3) dopamine receptor (P35462 whole entry): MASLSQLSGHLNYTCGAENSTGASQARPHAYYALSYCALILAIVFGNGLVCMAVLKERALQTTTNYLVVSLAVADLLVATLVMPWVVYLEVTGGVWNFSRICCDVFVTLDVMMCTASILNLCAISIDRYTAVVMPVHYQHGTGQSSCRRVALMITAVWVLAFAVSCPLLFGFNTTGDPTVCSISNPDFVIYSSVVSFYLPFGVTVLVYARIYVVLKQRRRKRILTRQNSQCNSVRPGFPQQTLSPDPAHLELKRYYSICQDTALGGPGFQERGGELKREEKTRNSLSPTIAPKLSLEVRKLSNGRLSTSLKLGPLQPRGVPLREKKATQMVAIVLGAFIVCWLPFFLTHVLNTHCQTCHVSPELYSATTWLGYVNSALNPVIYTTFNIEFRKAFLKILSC

Broadly, the IC50 is the concentration needed to halve the response being measured. By Ki is commonly meant the equilibrium dissociation constant of an inhibitor or competing ligand from its target. Consider `C[C@@H](CO)NC(=O)[C@@H]1C=C2c3cccc4[nH]cc(c34)C[C@H]2N(C)C1` [ERGONOVINE], for which the IC50 on D(3) dopamine receptor (read-out: IC50) is 0.567 µM; in data set [1] it was “Not Active”; in data set [2], “Not Active”; in data set [3], “Not Active”; in data set [4] it was “Not Active”; in data set [5], “Not Active”. Moreover, the Ki on D(3) dopamine receptor (read-out: Ki) was 0.193 µM; in data set [1], “Not Active”; in data set [2] it was “Not Active”; in data set [3], “Not Active”; in data set [4] it was “Not Active”; in data set [5] it was “Not Active”.

As to `COC(=O)CCc1ccc(OCC(O)CNC(C)C)cc1` (stereo not given) [ESMOLOL], the IC50 entry (on D(3) dopamine receptor (cho); in data set [1]; in data set [2]; in data set [3]; in data set [4]; in data set [5]) was “Not Active” throughout. Moreover, the Ki entry in data set [1], in data set [2], in data set [3], in data set [4] and in data set [5] was “Not Active” each time.

Regarding `CCC1(C)CC(=O)NC1=O` (stereo not given) [ETHOSUXIMIDE], the IC50 entry (on D(3) dopamine receptor (cho); in data set [1]; in data set [2]; in data set [3]; in data set [4]; in data set [5]) was “Not Active” throughout. For the same compound, the Ki result in data set [1], in data set [2], in data set [3], in data set [4] and in data set [5] was “Not Active” throughout.

On to `C#C[C@]1(OC(C)=O)CC[C@H]2[C@@H]3CCC4=C[C@@H](OC(C)=O)CC[C@@H]4[C@H]3CC[C@@]21C` [ETHYNODIOL DIACETATE], for which the IC50 entry (on D(3) dopamine receptor (cho); in data set [1]; in data set [2]; in data set [3]; in data set [4]; in data set [5]) was “Not Active” throughout. Further, the Ki result in data set [1], in data set [2], in data set [3], in data set [4] and in data set [5] was “Not Active” each time.

As to `COc1cc([C@@H]2c3cc4c(cc3[C@@H](O[C@@H]3O[C@@H]5CO[C@@H](C)O[C@H]5[C@H](O)[C@H]3O)[C@H]3COC(=O)[C@H]23)OCO4)cc(OC)c1O` [ETOPOSIDE], the IC50 entry (on D(3) dopamine receptor (cho); in data set [1]; in data set [2]; in data set [3]; in data set [4]; in data set [5]) was “Not Active” each time. The Ki entry in data set [1], in data set [2], in data set [3], in data set [4] and in data set [5] was “Not Active” in each case.

As to `C=CCc1ccc(O)c(OC)c1` [EUGENOL], the IC50 result (on D(3) dopamine receptor (cho); in data set [1]; in data set [2]; in data set [3]; in data set [4]; in data set [5]) was “Not Active” throughout. The Ki entry in data set [1], in data set [2], in data set [3], in data set [4] and in data set [5] was “Not Active” each time.

For `CC(C(=O)O)c1cccc(Oc2ccccc2)c1` (stereo not given) [FENOPROFEN], the IC50 result (at D(3) dopamine receptor (cho); in data set [1]; in data set [2]; in data set [3]; in data set [4]; in data set [5]) was “Not Active” in each case. Moreover, the Ki entry in data set [1], in data set [2], in data set [3], in data set [4] and in data set [5] was “Not Active” in each case.

Turning to `CC(C)(C)NC(=O)[C@H]1CC[C@H]2[C@@H]3CC[C@H]4NC(=O)C=C[C@]4(C)[C@H]3CC[C@]12C` [FINASTERIDE], the IC50 result (at D(3) dopamine receptor (cho); in data set [1]; in data set [2]; in data set [3]; in data set [4]; in data set [5]) was “Not Active” each time. For the same compound, the Ki entry in data set [1], in data set [2], in data set [3], in data set [4] and in data set [5] was “Not Active” each time.

For `COc1ccc2c3c1O[C@H]1C[C@@H](O)C=C[C@@]31CCN(C)C2` [GALANTAMINE], the IC50 result (on D(3) dopamine receptor (cho); in data set [1]; in data set [2]; in data set [3]; in data set [4]; in data set [5]) was “Not Active” in each case. Moreover, the Ki entry in data set [1], in data set [2], in data set [3], in data set [4] and in data set [5] was “Not Active” in each case.

Regarding `Nc1ccn([C@@H]2O[C@H](CO)[C@@H](O)C2(F)F)c(=O)n1` [GEMCITABINE], the IC50 result (at D(3) dopamine receptor (cho); in data set [1]; in data set [2]; in data set [3]; in data set [4]; in data set [5]) was “Not Active” each time. Also, the Ki result in data set [1], in data set [2], in data set [3], in data set [4] and in data set [5] was “Not Active” throughout.

In the case of `CC(C)=CCC/C(C)=C/CO` [GERANIOL], the IC50 entry (on D(3) dopamine receptor (cho); in data set [1]; in data set [2]; in data set [3]; in data set [4]; in data set [5]) was “Not Active” in each case. Besides, the Ki entry in data set [1], in data set [2], in data set [3], in data set [4] and in data set [5] was “Not Active” each time.

As for `N=C(N)NC(=O)Cc1c(Cl)cccc1Cl` [GUANFACINE], the IC50 entry (at D(3) dopamine receptor (cho); in data set [1]; in data set [2]; in data set [3]; in data set [4]; in data set [5]) was “Not Active” each time. Moreover, the inhibition constant (Ki) entry in data set [1], in data set [2], in data set [3], in data set [4] and in data set [5] was “Not Active” throughout.

In the case of `Oc1c(Cl)cc(Cl)c(Cl)c1Cc1c(O)c(Cl)cc(Cl)c1Cl` [HEXACHLOROPHENE], the IC50 entry (at D(3) dopamine receptor (cho); in data set [1]; in data set [2]; in data set [3]; in data set [4]; in data set [5]) was “Not Active” each time. In addition, the Ki result in data set [1], in data set [2], in data set [3], in data set [4] and in data set [5] was “Not Active” in each case.

Take `NNc1nncc2ccccc12` [HYDRALAZINE]: the IC50 entry (on D(3) dopamine receptor (cho); in data set [1]; in data set [2]; in data set [3]; in data set [4]; in data set [5]) was “Not Active” in each case. Also, the Ki entry in data set [1], in data set [2], in data set [3], in data set [4] and in data set [5] was “Not Active” in each case.

As for `CC(=O)[C@@]1(O)CC[C@H]2[C@@H]3CCC4=CC(=O)CC[C@]4(C)[C@H]3CC[C@@]21C` [HYDROXYPROGESTERONE], the IC50 entry (at D(3) dopamine receptor (cho); in data set [1]; in data set [2]; in data set [3]; in data set [4]; in data set [5]) was “Not Active” throughout. Also, the Ki entry in data set [1], in data set [2], in data set [3], in data set [4] and in data set [5] was “Not Active” each time.

Take `COC1=C(OC)C(=O)C(CCCCCCCCCCO)=C(C)C1=O` [IDEBENONE]: the IC50 result (on D(3) dopamine receptor (cho); in data set [1]; in data set [2]; in data set [3]; in data set [4]; in data set [5]) was “Not Active” in each case. Moreover, the Ki result in data set [1], in data set [2], in data set [3], in data set [4] and in data set [5] was “Not Active” in each case.

On to `CC(C)NNC(=O)c1ccncc1` [IPRONIAZID], for which the IC50 result (on D(3) dopamine receptor (cho); in data set [1]; in data set [2]; in data set [3]; in data set [4]; in data set [5]) was “Not Active” each time. The Ki result in data set [1], in data set [2], in data set [3], in data set [4] and in data set [5] was “Not Active” throughout.

As for `Cc1c(OCC(F)(F)F)ccnc1C[S+]([O-])c1nc2ccccc2[nH]1` (stereo not given) [LANSOPRAZOLE], the IC50 entry (at D(3) dopamine receptor (cho); in data set [1]; in data set [2]; in data set [3]; in data set [4]; in data set [5]) was “Not Active” in each case. In addition, the Ki result in data set [1], in data set [2], in data set [3], in data set [4] and in data set [5] was “Not Active” in each case.

As for `O=c1cc(N2CCOCC2)oc2c(-c3ccccc3)cccc12` [LY-294002], the concentration for half-maximal inhibition (IC50) entry at D(3) dopamine receptor (cho) is “Not Active”; in data set [1] it was “Not Active”; in data set [2] (read-out: IC50), 21.4 µM; in data set [3] it was “Not Active”; in data set [4] it was “Not Active”; in data set [5], “Not Active”. Further, the Ki result in data set [1] was “Not Active”; in data set [2] (read-out: Ki) it was 17.4 µM; in data set [3], “Not Active”; in data set [4] it was “Not Active”; in data set [5], “Not Active”.
